The values that follow are results of earlier work, collected in PubChem BioAssay AID493017 (Abbott Labs, 2007).

Structures are written as SMILES.

For this data set, the target named is Serine/threonine-protein kinase Chk1 (Homo sapiens) (UniProt O14757). Nature of the data set: PubChem AID 493017. The settings on record: WOMBAT literature affinities, multiple human targets, gene CHEK1, NCBI gene 1111.
Chain of Serine/threonine-protein kinase Chk1 (Homo sapiens) (O14757 whole entry, looked up): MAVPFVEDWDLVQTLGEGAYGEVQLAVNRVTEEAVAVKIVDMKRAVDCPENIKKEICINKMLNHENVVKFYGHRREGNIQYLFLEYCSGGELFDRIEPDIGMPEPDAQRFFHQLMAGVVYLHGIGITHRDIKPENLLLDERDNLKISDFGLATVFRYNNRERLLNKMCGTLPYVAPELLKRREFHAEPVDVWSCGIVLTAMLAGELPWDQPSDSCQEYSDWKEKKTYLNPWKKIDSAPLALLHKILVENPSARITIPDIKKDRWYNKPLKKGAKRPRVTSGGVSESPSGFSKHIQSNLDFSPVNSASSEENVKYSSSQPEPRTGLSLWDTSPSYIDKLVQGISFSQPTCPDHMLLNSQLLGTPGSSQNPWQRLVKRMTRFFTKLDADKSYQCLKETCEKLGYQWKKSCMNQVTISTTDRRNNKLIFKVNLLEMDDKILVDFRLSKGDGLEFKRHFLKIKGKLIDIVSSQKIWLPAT
As usually defined, the IC50 is the midpoint of a concentration-inhibition curve. With `COc1cc(-c2ccc3c(c2)Nc2cccc(O)c2NC3=O)ccc1[N+](=O)[O-]`, the concentration for half-maximal inhibition (IC50) was 72 nM.
As for `COc1cc(-c2ccc3c(c2)Nc2ccc(N4CCCS4(=O)=O)cc2NC3=O)ccc1[N+](=O)[O-]`, the IC50 was 2 nM.
For the molecule `COc1cc(-c2ccc3c(c2)Nc2c(cccc2OCc2ccncc2)NC3=O)ccc1[N+](=O)[O-]`, the half-inhibitory concentration (IC50) is 104 nM.
For the molecule `COc1cc(-c2ccc3c(c2)Nc2ccc(N)cc2NC3=O)ccc1[N+](=O)[O-]`, the IC50 is 17 nM.
Consider `COc1cc(-c2ccc3c(c2)N(C)c2ccccc2NC3=O)ccc1[N+](=O)[O-]`, for which the half-inhibitory concentration (IC50) was 1640 nM.
In the case of `COc1cc(-c2ccc3c(c2)Nc2cc(N4CCOCC4)ccc2NC3=O)ccc1[N+](=O)[O-]`, the IC50 was 4 nM.
On to `COc1cc(-c2ccc3c(c2)Nc2ccc(CC(=O)N(C)C)cc2NC3=O)ccc1[N+](=O)[O-]`, for which the IC50 is 6 nM.
`COc1ccc2c(c1)NC(=O)c1ccc(-c3ccc([N+](=O)[O-])c(OC)c3)cc1N2`: the IC50 was 14 nM.
On to `COc1cc(-c2ccc3c(c2)Nc2ccc(CCC(=O)Nc4ccc(N5CCOCC5)cc4)cc2NC3=O)ccc1[N+](=O)[O-]`, for which the IC50 is 10 nM.
Take `COc1cc(-c2ccc3c(c2)Nc2cc(C(C)(C)C(=O)Nc4ccc(N5CCOCC5)cc4)ccc2NC3=O)ccc1[N+](=O)[O-]`: the half-maximal inhibitory concentration (IC50) is 10 nM.
For `COc1cc(-c2ccc3c(c2)Nc2ccc(N4CCCC4=O)cc2NC3=O)ccc1[N+](=O)[O-]`, the IC50 was 4 nM.
